Activity calls are given as the source filed them. The rule behind the calls is not given here.

For orientation: CC50 means the concentration giving 50% cytotoxicity. For orientation: EC50 means the concentration giving half of the maximal effect. The EC90 is the concentration at which the effect reaches the 90% level.

Data set [1] can be described thus: Cytotoxicity against green monkey Vero 76 cells assessed as reduction in cell viability. Format: toxicity, cell-based. Conditions: chlorocebus sabaeus.
Data set [2] concerns Chikungunya virus. The data set can be described thus: Antiviral activity against CHIKV S27 in green monkey Vero 76 cells assessed as reduction in virus-induced cytopathic effect. It counts as functional, organism-based. The settings on record: S27, Vero 76. (In general: Damage to the host cells serves as the signal in cytopathic effect assays.)
Data set [3] can be described thus: Selective index, ratio of ratio of CC50 for cytotoxicity against green monkey Vero 76 cells to EC50 for antiviral activity against CHIKV S27 in green monkey Vero 76 cells assessed as reduction. It counts as toxicity, cell-based. Conditions: read-out: Selectivity Index.
The subject of data set [4] is Chikungunya virus. The data set can be described thus: Antiviral activity against CHIKV S27 in green monkey Vero 76 cells assessed as reduction in virus yield measured after 3 days by Virus yield reduction assay. Conditions: S27, Vero 76, 72 h, time 3 day. Format: functional.
Data set [5] can be described thus: Metabolic stability in human liver S9 fraction assessed as intrinsic clearance by HPLC-MS/MS analysis. Format: ADME, subcellular.
Data set [6] addresses Polyprotein P1234 (Chikungunya virus (strain S27-African prototype) (CHIKV)) (UniProt Q8JUX6). The settings on record: dose 0.27-600 µM, time 2000-8000 sec.
Data set [7] can be described thus: Metabolic stability in human liver microsomes assessed as intrinsic clearance by HPLC-MS/MS analysis. It counts as ADME, Microsome. (In general: Microsomes from liver hold many membrane-bound enzymes, among them those of drug oxidation.)
Data set [8] is described as follows: Metabolic stability in human liver S9 fraction assessed as half life by HPLC-MS/MS analysis. It counts as ADME, subcellular.
The target in data set [9] is Polyprotein P1234 (Chikungunya virus (strain S27-African prototype) (CHIKV)) (UniProt Q8JUX6).
Chain of Polyprotein P1234 (Chikungunya virus (strain S27-African prototype) (CHIKV)) (Q8JUX6 whole entry): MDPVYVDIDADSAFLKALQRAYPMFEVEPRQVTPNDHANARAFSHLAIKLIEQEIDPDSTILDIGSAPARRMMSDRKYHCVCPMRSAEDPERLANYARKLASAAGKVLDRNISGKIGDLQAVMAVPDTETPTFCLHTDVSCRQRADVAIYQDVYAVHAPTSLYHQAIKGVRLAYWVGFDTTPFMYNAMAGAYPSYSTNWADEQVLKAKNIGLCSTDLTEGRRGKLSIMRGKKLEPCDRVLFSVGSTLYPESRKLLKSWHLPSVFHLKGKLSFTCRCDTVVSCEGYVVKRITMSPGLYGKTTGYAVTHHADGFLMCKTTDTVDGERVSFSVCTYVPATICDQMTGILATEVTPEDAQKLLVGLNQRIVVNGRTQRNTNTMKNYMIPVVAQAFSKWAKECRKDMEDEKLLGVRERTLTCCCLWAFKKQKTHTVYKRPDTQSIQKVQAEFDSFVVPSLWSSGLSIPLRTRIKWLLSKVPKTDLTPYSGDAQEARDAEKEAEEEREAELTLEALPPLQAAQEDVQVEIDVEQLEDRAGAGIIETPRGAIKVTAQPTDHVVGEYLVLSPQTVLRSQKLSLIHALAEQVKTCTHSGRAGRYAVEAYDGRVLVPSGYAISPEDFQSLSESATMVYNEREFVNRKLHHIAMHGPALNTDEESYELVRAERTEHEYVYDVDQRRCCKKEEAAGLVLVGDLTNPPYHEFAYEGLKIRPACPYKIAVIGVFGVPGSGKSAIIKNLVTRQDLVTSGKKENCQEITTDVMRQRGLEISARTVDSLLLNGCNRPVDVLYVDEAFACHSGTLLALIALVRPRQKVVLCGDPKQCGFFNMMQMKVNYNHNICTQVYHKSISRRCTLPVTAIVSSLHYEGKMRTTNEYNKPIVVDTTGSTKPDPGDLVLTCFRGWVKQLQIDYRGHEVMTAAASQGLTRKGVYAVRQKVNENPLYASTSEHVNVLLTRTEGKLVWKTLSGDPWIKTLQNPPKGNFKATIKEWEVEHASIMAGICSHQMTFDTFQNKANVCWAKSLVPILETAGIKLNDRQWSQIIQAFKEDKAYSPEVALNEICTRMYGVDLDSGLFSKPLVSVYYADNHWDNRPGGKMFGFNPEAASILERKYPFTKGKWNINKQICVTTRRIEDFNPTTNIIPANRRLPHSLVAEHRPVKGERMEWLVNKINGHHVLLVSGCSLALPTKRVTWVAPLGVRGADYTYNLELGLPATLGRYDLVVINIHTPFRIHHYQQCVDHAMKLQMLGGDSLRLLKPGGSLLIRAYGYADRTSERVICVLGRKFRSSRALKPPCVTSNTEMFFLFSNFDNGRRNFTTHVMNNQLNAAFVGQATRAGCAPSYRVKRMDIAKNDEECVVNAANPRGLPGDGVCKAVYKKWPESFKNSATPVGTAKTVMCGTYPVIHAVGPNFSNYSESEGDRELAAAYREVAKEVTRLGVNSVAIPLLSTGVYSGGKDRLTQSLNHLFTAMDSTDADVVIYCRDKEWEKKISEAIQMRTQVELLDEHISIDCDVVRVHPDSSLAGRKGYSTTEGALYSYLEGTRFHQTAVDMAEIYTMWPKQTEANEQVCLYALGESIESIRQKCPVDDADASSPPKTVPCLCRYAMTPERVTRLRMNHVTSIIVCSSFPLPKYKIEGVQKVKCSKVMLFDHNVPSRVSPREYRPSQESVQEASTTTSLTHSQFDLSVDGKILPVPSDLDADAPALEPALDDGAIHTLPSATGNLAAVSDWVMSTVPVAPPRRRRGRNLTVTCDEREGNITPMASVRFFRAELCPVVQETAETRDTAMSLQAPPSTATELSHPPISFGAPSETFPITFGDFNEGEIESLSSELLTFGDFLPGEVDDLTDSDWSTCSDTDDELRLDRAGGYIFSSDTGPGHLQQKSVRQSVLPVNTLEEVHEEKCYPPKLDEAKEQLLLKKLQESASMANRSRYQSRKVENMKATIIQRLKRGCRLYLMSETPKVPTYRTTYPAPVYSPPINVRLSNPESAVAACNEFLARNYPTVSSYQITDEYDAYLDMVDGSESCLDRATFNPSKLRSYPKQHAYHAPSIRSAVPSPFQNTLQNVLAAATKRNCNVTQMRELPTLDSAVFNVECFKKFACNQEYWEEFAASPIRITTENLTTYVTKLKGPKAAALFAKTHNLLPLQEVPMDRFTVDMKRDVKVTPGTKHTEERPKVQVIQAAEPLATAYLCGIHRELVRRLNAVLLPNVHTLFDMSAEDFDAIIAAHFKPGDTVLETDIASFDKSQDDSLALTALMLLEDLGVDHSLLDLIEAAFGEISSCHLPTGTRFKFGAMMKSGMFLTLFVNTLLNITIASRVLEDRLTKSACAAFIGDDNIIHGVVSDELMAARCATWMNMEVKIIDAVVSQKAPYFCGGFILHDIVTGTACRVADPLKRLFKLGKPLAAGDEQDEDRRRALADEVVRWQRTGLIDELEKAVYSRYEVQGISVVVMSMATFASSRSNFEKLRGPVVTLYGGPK
Data set [10] shares this target. The settings on record: dose 0.27-600 µM.
Data set [11] in a line: Metabolic stability in CD-1 mouse liver microsomes assessed as half life by HPLC-MS/MS analysis. It counts as ADME, Microsome.
Data set [12] concerns Chikungunya virus. The data set can be described thus: Antiviral activity against CHIKV infected in C57BL/6 mouse assessed as mouse survival at 300 mg/kg/day, ip measured after 6 days post infection after 4 hrs of last treatment. Format: functional, organism-based. The settings on record: time 6.0 day.
Data set [13] has as its system Chikungunya virus. The data set can be described thus: Antiviral activity against CHIKV infected in C57BL/6 mouse assessed as footpad swelling at 300 mg/kg/day, ip measured after 6 days post infection presence of compound (reference value: 40.9+/-12.4). Conditions: time 6 day. Format: functional.
Data set [14] concerns Chikungunya virus. The data set can be described thus: Antiviral activity against CHIKV infected in C57BL/6 mouse model assessed as virus titers at 100 mg/kg/day, ip measured after 6 days post infection presence of compound (reference value: 5.3+/0.3). It counts as functional. Conditions: time 6 day.

As to `COC(=O)/C=C/CNC(=O)c1cc(C)cc2c1NC(C)(C)C=C2C`, the CC50 in data set [1] is over 43 µM. The EC50 in the data set on Chikungunya virus [2] is over 43 µM.

Take `COC(=O)/C=C/CNC(=O)c1cccc2ccc(C)nc12`: the CC50 in [1] amounted to 34 µM. Further, the concentration giving a half-maximal response (EC50) in the data set on Chikungunya virus [2] is over 34 µM.

On to `COC(=O)/C=C/CNC(=O)c1ccccc1Nc1ccccc1`, for which the CC50 in [1] is 38 µM. In addition, the EC50 with Chikungunya virus [2] is over 38 µM.

With `COC(=O)/C=C/CNC(=O)c1cccc2c1NC(C)(C)C=C2C`, the CC50 in data set [1] was over 22 µM. In the data set on Chikungunya virus [2], the EC50 is over 22 µM.

With `COC(=O)/C=C/CNC(=O)c1cccc2c1NCCC2`, the CC50 in data set [1] was over 50 µM. Moreover, the EC50 in the data set on Chikungunya virus [2] is over 50 µM.

On to `CC1=CC(C)(C)Nc2c(C(=O)NC/C=C/S(C)(=O)=O)cccc21`, for which, in data set [1], the CC50 came out at 39 µM. For the same molecule, the EC50 in the data set on Chikungunya virus [2] came to 23 µM.

As for `CC1CC(C)(C)Nc2c(C(=O)NC/C=C/S(C)(=O)=O)cccc21` (stereo not given), the selectivity ratio in [3] was over 2. Moreover, the CC50 in data set [1] was over 50 µM. Besides, the EC50 in the data set with Chikungunya virus [2] is 25 µM.

In the case of `CC1CCc2cccc(C(=O)NC/C=C/S(C)(=O)=O)c2N1` (stereo not given), the EC90 in the data set with Chikungunya virus [4] came out at 1500 nM. Moreover, the figures for the CLH in data set [5] and in data set [7] were under 19.3 µL/min/mg and under 57.8 µL/min/mg, respectively. The TDI entry in data set [6] was “Active”. Also, the selectivity ratio in [3] was over 220. In data set [1], the CC50 was over 50 µM. Besides, the results for the t1/2 in data set [8] and in data set [11] were over 120 min and 81.36 min, respectively. Besides, the Ratio (10^-6 microM/s) in data set [9] worked out at 35.8. Further, the inhibition result in data set [10] was “Dose-Dependent Effect”. Besides, the EC50 in the data set on Chikungunya virus [2] is 0.23 µM.

For `COC(=O)/C=C/CNC(=O)c1c[nH]c2ccc(Br)cc12`, the CC50 in data set [1] is 16 µM. The EC50 with Chikungunya virus [2] is 3.1 µM.

With `CC1=CC(C)(C)Nc2c(C(=O)N[C@@H](C)/C=C/S(C)(=O)=O)cccc21`, the selectivity ratio in data set [3] is over 11. Besides, the CC50 in data set [1] was over 50 µM. In addition, in the data set with Chikungunya virus [2], the EC50 worked out at 4.4 µM.

On to `CS(=O)(=O)/C=C/[C@H](Cc1ccccc1)NC(=O)c1cccc2cccnc12`, for which, in [1], the CC50 was over 50 µM. The EC50 with Chikungunya virus [2] was over 50 µM.

For `NC(=O)c1nc(F)cnc1O`, the Survival result with Chikungunya virus [12] was “Active”. Further, the Activity in the data set with Chikungunya virus [13] is 32.6%; in the data set on Chikungunya virus [14], 5.1.

In the case of `COC(=O)CCCNC(=O)c1cccc2c1NC(C)(C)CC2C` (stereo not given), in data set [1], the CC50 was over 50 µM. Also, the EC50 in the data set with Chikungunya virus [2] was over 50 µM.

Consider `COC(=O)/C=C/CNC(=O)c1cccc2cccnc12`, for which, in data set [1], the CC50 was over 50 µM. Moreover, the EC50 in the data set with Chikungunya virus [2] was over 50 µM.

The values are drawn from ChEMBL document CHEMBL6071156 (Eur J Med Chem, 2024).
